Laboratory results as given in patent US6225478A, “Iridoid derivatives and neovascularization inhibitors containing the same as active ingredient” (Tsumura & Co., priority 1999, dated 2001).
Values after ≈ are worked out from the molar mass of the structure shown. Where two headings read alike, the source gives them in different places.

What was measured:
Format in all cases: cell-based
[1] = tested on: human umbilical-vein endothelial cells (HUVEC); experiment: Cell Migration Assay (CMA) Test, HUVEC (% relative to control); details: Homo sapiens, HUVEC, 24 hours, 60% or less = remarkable inhibition, read-out: CMA (% relative to control); for activity at 1 µg/mL: 1 μg/ml; for activity at 10 µg/mL: 10 μg/ml
In short: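 Confluent 7th-subculture HUVEC monolayers scraped with razor blade, then given M199 (2+) plus 40 or 4 μl of 1 mg/ml sample (in 5% DMSO-PBS) per 4.0 ml medium for 24 h at 37 °C. Methanol-fixed, Giemsa-stained; newly migrated cells counted microscopically in 1 mm×1 mm blocks, expressed versus M199 (2+) control.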

[2] = tested on: human umbilical-vein endothelial cells (HUVEC); experiment: Tube Formation Assay (TFA) Test, HUVEC in collagen gel; details: Homo sapiens, HUVEC, 20 hours, 40% or less judged remarkable, read-out: TFA (inhibition rate, %); for inhibition at 1 µg/mL: 1 μg/ml; for inhibition at 10 µg/mL: 10 μg/ml
In short: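 Inhibition rate (%) of tube formation is computed from tube lengths against control (+) and control (-), measured after 20 h at 37 °C in M-199 with 20% FCS, 30 ng/ml b-FGF and 0.1 μM PMA. Samples were applied to HUVEC on collagen and covered by a second collagen layer (double-layer gel).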

[3] = tested on: human umbilical-vein endothelial cells (HUVEC); experiment: Cell Proliferation Assay (CPA) Test, HUVEC, MTT; details: Homo sapiens, M199 (2+) medium, read-out: CPA (IC50 μg/ml)
In short: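 HUVEC (7th subculture) seeded at 5×10^4 cells/ml in M-199 with 20% FCS, 10 ng/ml b-FGF and 10 ng/ml EGF, grown 24 h at 37 °C, 5% CO2. Compounds added from 1 mg/ml or 0.1 mg/ml samples in 5% DMSO-PBS(−), renewed with medium after 24 h, then cultured 48 h more. Read-out by MTT with 4 h incubation and SDS/HCl stop.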

| Compound | activity at 1 µg/mL [1] | activity at 10 µg/mL [1] | inhibition at 1 µg/mL ([2]; 20 h) | inhibition at 10 µg/mL ([2]; 20 h) | IC50 [3] | inhibition at 1 µg/mL [2] | inhibition at 10 µg/mL [2] |
| --- | --- | --- | --- | --- | --- | --- | --- |
| CNC(=O)OC1OC=C(C(=O)N2CC(C)OC(C)C2)C2CC3OC3(C)C12 [compound 24, (1S,4aS,6S,7R,7aR)-6,7-epoxy-1,4a,5,6,7,7a-hexahydro-7-methyl-1-(methylcarbamoyloxy) cyclopenta [c]-pyrane-4-carboxylic acid 2,6-dimethylmorpholylamide] | 96.9% | 112% | 41.3% | 24.2% | > 100 µg/mL |  |  |
| CNC(=O)OC1OC=C(C(=O)N2CCCC2)C2CC3OC3(C)C12 [compound 25, (1S,4aS,6S,7R,7aR)-6,7-epoxy-1,4a,5,6,7,7a-hexahydro-7-methyl-1-(methylcarbamoyloxy) cyclopenta [c]-pyrane-4-carboxylic acid pyrrolidylamide] | 91.8% | 87.5% | 31.8% | 14.5% | > 100 µg/mL |  |  |
| CNC(=O)OC1OC=C(C(=O)N2CCCCC2)C2CC3OC3(C)C12 [compound 26, (1S,4aS,6S,7R,7aR)-6,7-epoxy-1,4a,5,6,7,7a-hexahydro-7-methyl-1-(methylcarbamoyloxy) cyclopenta [c]-pyrane-4-carboxylic acid piperidylamide] | 84% | 104% | 41.2% | 30.8% | > 100 µg/mL |  |  |
| CNC(=O)O[C@@H]1OC=C(C(=O)NCc2ccccc2)[C@H]2C[C@@H]3O[C@]3(C)[C@H]12 [compound 27, (1S,4aS,6S,7R,7aR)-6,7-epoxy-1,4a,5,6,7,7a-hexahydro-7-methyl-1-(methylcarbamoyloxy) cyclopenta [c]-pyrane-4-carboxylic acid benzylamide] | 94.5% | 103% | 29.1% | 32.7% | > 100 µg/mL |  |  |
| CNC(=O)O[C@@H]1OC=C(C(=O)NCCc2ccccc2)[C@H]2C[C@@H]3O[C@]3(C)[C@H]12 [compound 28, (1S,4aS,6S,7R,7aR)-6,7-epoxy-1,4a,5,6,7,7a-hexahydro-7-methyl-1-(methylcarbamoyloxy) cyclopenta [c]-pyrane-4-carboxylic acid phenylethylamide] | 94.3% | 114% | 41.3% | 36.8% | > 100 µg/mL |  |  |
| COC(=O)C1=CO[C@@H](OC(N)=O)[C@@H]2[C@@H]1C[C@@H]1O[C@]21C [compound 29, (1S,4aS,6S,7R,7aR)-1-(carbamoyloxy)-6,7-epoxy-1,4a,5,6,7,7a-hexahydro-7-methylcyclopenta [c] pyrane-4-carboxylic acid methylester] | 89.9% | 88% | 17.7% | 29.3% | > 100 µg/mL |  |  |
| CCNC(=O)O[C@@H]1OC=C(C(=O)OC)[C@H]2C[C@@H]3O[C@]3(C)[C@H]12 [compound 30, (1S,4aS,6S,7R,7aR)-6,7-epoxy-1-(ethylcarbamoyloxy)-1,4a,5,6,7,7a-hexahydro-7-methylcyclopenta [c] pyrane-4-carboxylic acid methylester] | 90% | 105% | 16.5% | 36% | > 100 µg/mL |  |  |
| COC(=O)C1=COC(OC(=O)N(C)C)C2C1CC1OC12C (stereo not drawn) [compound 31] | 97.2% | 107% | 15.2% | 26.5% | > 100 µg/mL |  |  |
| COC(=O)C1=CO[C@@H](OC(=O)NCCCl)[C@@H]2[C@@H]1C[C@@H]1O[C@]21C [compound 32, (1S,4aS,6S,7R,7aR)-1-[(2-chloroethyl)carbamoyloxy]-6,7-epoxy-1,4a,5,6,7,7a-hexahydro-7-methylcyclopenta [c] pyrane-4-carboxylic acid methylester] | 93% | 97% |  |  | > 100 µg/mL | 68.8% | 30% |
| COC(=O)C1=CO[C@@H](OC(=O)NC(C)C)[C@@H]2[C@@H]1C[C@@H]1O[C@]21C [compound 34, (1S,4aS,6S,7R,7aR)-6,7-epoxy-1,4a,5,6,7,7a-hexahydro-1-(isopropylcarbamoyloxy)-7-methylcyclopenta [c] pyrane-4-carboxylic acid methylester] | 98.2% | 95.2% | 16.8% | -14.1% | > 100 µg/mL |  |  |
| COC(=O)C1=CO[C@@H](OC(=O)Nc2ccccc2)[C@@H]2[C@@H]1C[C@@H]1O[C@]21C [compound 35, (1S,4aS,6S,7R,7aR)-6,7-epoxy-1,4a,5,6,7,7a-hexahydro-7-methyl-1-(phenylcarbamoyloxy) cyclopenta [c] pyrane-4-carboxylic acid methylester] | 84.4% | 67.2% | -3.3% | 20% | > 100 µg/mL |  |  |
| COC(=O)C1=CO[C@@H](OC(=O)Nc2ccc(F)cc2)[C@@H]2[C@@H]1C[C@@H]1O[C@]21C [compound 36, (1S,4aS,6S,7R,7aR)-6,7-epoxy-1,4a,5,6,7,7a-hexahydro-1-[(4-fluorophenyl)carbamoyloxy]-7-methylcyclopenta [c] pyrane-4-carboxylic acid methylester] | 95% | 99.7% | 6.9% | -18.3% | > 100 µg/mL |  |  |
| COC(=O)C1=COC(OC(=O)Nc2cccc3ccccc23)C2C1CC1OC12C [compound 37, (1S, 4aS,6S,7R,7aR)-6,7-epoxy-1,4a,5,6,7,7a-hexahydro-7-methyl-1-[(1-naphtyl)carbamoyloxy] cyclopenta [c] pyrane-4-carboxylic acid methylester] | 102% | 88.6% | 14.1% | 22.6% | > 100 µg/mL |  |  |
| COC(=O)C1=CO[C@@H](OC(=O)N2CCOCC2)[C@@H]2[C@@H]1C[C@@H]1O[C@]21C [compound 38, (1S,4aS,6S,7R,7aR)-6,7-epoxy-1,4a,5,6,7,7a-hexahydro-7-methyl-1-(morpholinocarbonyloxy) cyclopenta [c] pyrane-4-carboxylic acid methylester] | 92.3% | 61.8% | 15.3% | -10% | > 100 µg/mL |  |  |
| COC(=O)C1=CO[C@@H](OC(=O)NC(=O)CCl)[C@@H]2[C@@H]1C[C@@H]1O[C@]21C [compound 39, (1S,4aS,6S,7R,7aR)-1-(chloroacetylcarbamoyloxy)-6,7-epoxy-1,4a,5,6,7,7a-hexahydro-7-methylcyclopenta [c] pyrane-4-carboxylic acid methylester] | 110% | 94.6% | 37.6% | 39.7% | 55 µg/mL (≈ 159 µM) |  |  |
| COC(=O)C1=CO[C@H](OC(=O)NC(=O)CCl)[C@@H]2[C@@H]1C[C@@H]1O[C@]21C [compound 40, (1R,4aS,6S,7R,7aR)-1-(chloroacetylcarbamoyloxy)-6,7-epoxy-1,4a,5,6,7,7a-hexahydro-7-methylcyclopenta [c] pyrane-4-carboxylic acid methylester] | 77.3% | 66.8% | 32.8% | 23.8% | 58.1 µg/mL (≈ 168 µM) |  |  |
| COC(=O)C1=CO[C@@H](OC(=O)NC(=O)c2ccccc2)[C@@H]2[C@@H]1C[C@@H]1O[C@]21C [compound 41, (1S,4aS,6S,7R,7aR)-1-(benzoylcarbamoyloxy)-6,7-epoxy-1,4a,5,6,7,7a-hexahydro-7-methylcyclopenta [c] pyrane-4-carboxylic acid methylester] | 102% | 95% | 46.7% | 37.6% | 56.1 µg/mL (≈ 150 µM) |  |  |
| CC[C@]12O[C@H]1C[C@@H]1C(C(=O)OC)=CO[C@@H](OC(=O)NC)[C@@H]12 [compound 43, (1S,4aS,6s,7R,7aR)-6,7-epoxy-7-ethyl-1,4a,5,6,7,7a-1-hexahydro-1-(methylcarbamoyloxy) cyclopenta [c] pyrane-4-carboxylic acid methylester] | 99.9% | 89.3% | 12.4% | 9.1% | > 100 µg/mL |  |  |
